This note sets out measurements from patent US20110172230A1, “UREA COMPOUND OR SALT THEREOF” (priority 2006, published 2011).

Structures are written as SMILES. Structures can show the parent of a compound that is named as a salt.

For this assay, the target named is T1, FAAH (Homo sapiens, UniProt O00519).
T1 construct: host or cells: 5637 human bladder epithelial cancer-derived cells, not transfected
T1 sequence (O00519 1-579): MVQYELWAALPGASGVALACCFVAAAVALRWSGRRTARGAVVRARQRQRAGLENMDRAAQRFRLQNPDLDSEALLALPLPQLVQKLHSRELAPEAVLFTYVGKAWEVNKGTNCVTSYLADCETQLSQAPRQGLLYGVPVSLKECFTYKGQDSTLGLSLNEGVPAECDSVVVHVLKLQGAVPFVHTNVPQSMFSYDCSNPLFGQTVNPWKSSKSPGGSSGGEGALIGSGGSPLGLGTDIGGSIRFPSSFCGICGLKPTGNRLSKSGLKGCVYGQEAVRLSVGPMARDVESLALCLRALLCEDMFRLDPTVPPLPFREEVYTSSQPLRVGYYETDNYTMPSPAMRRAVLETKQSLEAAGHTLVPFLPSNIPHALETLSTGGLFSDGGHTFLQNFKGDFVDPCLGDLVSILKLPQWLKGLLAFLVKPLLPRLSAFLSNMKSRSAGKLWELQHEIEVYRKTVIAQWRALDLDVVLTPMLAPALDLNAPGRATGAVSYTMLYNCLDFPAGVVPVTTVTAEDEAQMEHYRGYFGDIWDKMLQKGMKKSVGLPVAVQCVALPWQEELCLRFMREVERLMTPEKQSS
The assay is described as follows: Screening for an FAAH activity-inhibiting substance with human bladder epithelial cancer-derived cell line 5637 cells (IC50). The format is cell-based. The following applies: FAAH activity in human bladder epithelial cancer-derived 5637 cells, 37° C., 30 minutes. The method, then: Screening for an FAAH Activity-Inhibiting Substance with a Human Bladder Epithelial Cancer-Derived Cell
(1) Screening for an FAAH Activity Inhibiting Substance
Human bladder epithelial cancer-derived cell line 5637 cells (HTB-9; ATCC) were seeded on a 48-well cell culture plate in an amount of 1×10^5 cell/well, using 10% fetal bovine serum (HyClone)-containing RPMI1640 medium (Invitrogen Corporation). After incubated at 37° C. for 12 hours or longer, the cells were washed with 400 μl/well of a buffer (Hank's Balanced Salt Solution, 20 mM Hepes-NaOH (pH 7.4)). A test substance dissolved in DMSO was added to a substrate solution (the above buffer containing 3 μCi/ml radiolabeled anandamide (Anandamide [ethanolamine 1-^3H]) and 10 μM anandamide) so as to have a concentration from 0.003 nM to 30 nM. As a control, DMSO alone was added. 100 μl/well of the substrate solution was added to the above cells, and incubated in a CO2 incubator at 37° C. for 30 minutes. Next, the cell culture plate was transferred onto ice, and the substrate solution was removed by suction; and 75 μl/well of a cytolytic solution (the above buffer containing 0.5% Triton X-100, and 10 μM of FAAH-inhibitory activity-having compound, 3′-carbamoylbiphenyl-3-yl ester (URB597; Cayman chemical; Kathuria et al., Nature Med., Vol. 9, pp. 76-81, 2003)) was added thereto, followed by stirring. The resulting cell lysate in every well was individually transferred into a 1.5 ml sample tube, to which was added 150 μl of 1:1 (ratio by volume) chloroform/methanol solution, followed by vortexing. This was centrifuged (15000 rpm, 2 minutes), whereby the decomposed product, ethanolamine (ethanolamine 1-^3H) was separated in the upper layer (water/methanol layer) and the unreacted radiolabeled anandamide was in the lower layer (chloroform layer). 25 μl of the upper layer was transferred into a 96-well organic solvent-resistant white microplate (PicoPlate-96; Perkin Elmer, Inc.), 150 μl of Microscint-20 (Perkin Elmer, Inc.) was added thereto, and this was measured with a microplate scintillation counter (TopCount™; Beckman Coulter, Inc.). As compared with the control, the substance that gave a decreased value was selected as an FAAH activity-inhibiting substance.
(2) Measurement of the IC50 Value of the FAAH Activity Inhibiting Substance
The compound dissolved in DMSO to have a concentration of 10 mM was dissolved in the substrate solution so as to have a varying concentration from 0.003 nM to 30 nM. According to the method mentioned above, the compound was analyzed for its influence on FAAH activity. As a negative control, DMSO was used. As a positive control, URB597 was added to the substrate solution to have a concentration of 10 μM. Based on the measured value of the positive control, 0%, and on the measured value of the negative control, 100%, the IC50 value of the test substance was obtained. Furthermore, Ex represents Example No. as denoted below.

With `O=C(Nc1cccnc1)N1CCN(Cc2ccnc(OCCC3CCCCC3)c2)CC1` [Example 30, 4-{[2-(2-cyclohexylethoxy)pyridin-4-yl]methyl}-N-pyridin-3-ylpiperazine-1-carboxamide trihydrochloride], the midpoint of inhibition, the IC50, lay at 0.28 nM. `O=C(Nc1cnccn1)N1CCN(C(=O)c2ccnc(OCCC3CCCCC3)c2)CC1` [Example 38, 4-[2-(2-cyclohexylethoxy)isonicotinoyl]-N-pyrazin-2-ylpiperazine-1-carboxamide]: the half-maximal inhibitory concentration (IC50) stood at 0.7 nM. For the molecule `O=C(Nc1ncccn1)N1CCN(C(=O)c2cccc(OCCC3CCCCC3)c2)CC1` [Example 155], the IC50 was determined as 0.54 nM. For `O=C(Nc1cnccn1)N1CCN(C(=O)c2cccc(OCCC3CCCCC3)c2)CC1` [Example 210], the IC50 turned out to be 0.16 nM.

In turn, `CN(CCC1CCCCC1)c1ccc(C(=O)N2CCN(C(=O)Nc3cccnc3)CC2)cc1` [Example 334] came in with an IC50 of 0.18 nM. Then `COCC(=O)NC(=O)N1CCN(Cc2cccc(OCCC3CCCCC3)c2)CC1` [Example 439], with 0.43 nM.
